Row | melting point [°C] | SMILES
1 | 198 to 199 | Cc1sc(-c2ccc(Cl)cc2)nc1O
2 | 150 to 152 | COc1ccc(OC)c(CC(=O)c2ccc(C(C)C)c(OS(N)(=O)=O)c2C(C)C)c1
3 | 179 to 182 | Cn1c(COc2ccc(CC3SC(=O)NC3=O)cc2)nc2ccc(Oc3cccc(NC(=O)Nc4ccc5c(c4)OCO5)c3)cc21 (stereo not given)
4 | 64 to 66 | CCN(CC)C(=O)c1ccoc1-c1ccc(C=O)cc1
5 | 126 to 128 | Cc1ccc(CC(N)C(O)C(N)Cc2ccccc2)cc1 (stereo not given)
6 | 88 to 89 | COc1cc(CC(C)(C)C(=O)O)cc2c1OC(C)(C)C2
7 | 179 to 182 | O=C1CCC2CCC(=O)N12
8 | 259 to 261 | CC(=NO)c1ccc2nnn(Cc3ccc4ncccc4c3)c2n1
9 | 99 to 101 | CCCCOCCOc1ccc(-c2ccc3c(c2)C=C(C(=O)O)CCN3CCCOC)cc1
10 | 192 to 194 | COc1cc2c(cc1OC)C(C)(C)C(/C=C/C(=O)N1CCC(CCCC3CCN(C(=O)/C=C/C4=Cc5cc(OC)c(OC)cc5C4(C)C)CC3)CC1)=C2
11 | 167 to 169 | ClC(Cl)(Cl)C1OCc2ccccc2O1 (stereo not given)
12 | 146 to 148 | CCc1c(CC(=O)NCCCCCCNC(=O)Cc2ccc([N+](=O)[O-])cc2)ccc(OC)c1OC
13 | 152 to 154 | N#CNC(=N)NCCc1c[nH]cn1
14 | 197 to 199 | COc1cc2c(cc1Nc1ncc(Cl)c(Nc3ccccc3S(=O)(=O)N3CCC(O)C3)n1)CCN(CC(C)O)CC2 (stereo not given)
15 | 171 to 173 | Nc1nc(-c2cc(Cl)ccc2Cl)nc(N2C[C@H](O)C[C@H]2CO)n1
16 | 120 | COC(C)=CC(=O)NC1CCCCCC1
17 | 167 | COC(=O)c1cc(-c2ccc(Cl)cc2)n(-c2ccc(Cl)cc2Cl)n1
18 | 224 to 226 | O=C(Nc1cccc2cc(CO)cnc12)c1c(Cl)cccc1Cl
19 | 189 to 190 | CS(=O)(=O)c1ccc(N2CC(O)(C(F)(F)F)N=C2c2ccccc2)cc1 (stereo not given)
20 | 112 to 115 | O=C(O)CCCCCCN1C(=O)c2ccccc2C1=O
21 | 112 to 113 | CC(C)NC(=Nc1ccc(Cl)cc1)Nc1ncccc1OCc1c(F)cccc1F
22 | 158 | CNC(=O)N/N=C1/C(=O)N(CCN(C(C)C)C(C)C)c2ccc(C)cc21
23 | 212 to 217 | O=S1(=O)c2ccccc2N(c2ccccc2)c2ccccc21
24 | 115 to 118 | CN1CCN(Cc2cc3c(cc2F)-c2[nH]nc(-c4ccsc4)c2C3)CC1
25 | 49 to 50 | CC1(C)CC(N2CCCC2)c2sccc2O1 (stereo not given)

Row | melting point [°C] | SMILES
26 | 179 to 180 | CCn1ncc(C(=O)c2ccc(S(C)(=O)=O)c(-c3ccccc3C)c2C)c1O
27 | 140 to 141 | COP(=O)(CC(=C(c1ccc(F)cc1)c1ccc(F)cc1)c1nnnn1C)OC
28 | 139 to 140 | Cc1c(NC(=O)c2ccc(-c3ccccc3F)c(F)c2)ccc2cc(CN3CCCC3)cnc12
29 | 231 to 232 | Cc1ccc(-n2ncc(C(=O)O)c2C(N)=O)cc1C
30 | 189 | CCOC(=O)NN=C(c1ccccc1)c1ccncc1
31 | 201 to 203 | COC(=O)c1ccc(Cn2c(=O)c3cc(C(=O)NCc4ccc(OC)cc4)sc3n(C)c2=O)cc1OC
32 | 174 | COc1cc(NC(C)=O)c(Cl)cc1NC(=O)N1CCN(Cc2ccccc2)CC1
33 | 191 to 193 | CC(=O)C(Cc1nsc2ccc(-n3c(=O)cc(C(F)(F)F)n(C)c3=O)cc12)C(=O)O (stereo not given)
34 | 122 to 123 | c1ccc2oc(-c3nc(COc4ccc(CCCn5ccnc5)cc4)co3)cc2c1
35 | 157 | CN(C(=O)N[C@@H](Cc1ccc(Nc2nccc3ccncc23)cc1)C(=O)O)c1ccccc1Cc1ccccc1
36 | 139 to 140 | O=C1NC(=O)C(c2ccc(Br)s2)O1 (stereo not given)
37 | 101 to 103 | COC(=O)c1cc(N=Cc2ccccc2)ccc1OC(C)=O
38 | 185 to 187 | C=C1C(=O)NC(=O)N1c1ccc(Cl)cc1
39 | 180 to 182 | O=C(c1ccc(OC(F)(F)F)cc1)N1CCc2cc(S(=O)(=O)N3CC(c4ccccc4)NC3=O)ccc21 (stereo not given)
40 | 82 | CCOC(=O)NCc1cc(-c2ccccc2)no1
41 | 192 to 194 | Cc1c(-c2ccccc2)n(-c2c(F)c(F)c(F)c(F)c2F)c(-c2ccccc2)cc1=O
42 | 187 | CN(c1ccccc1)c1ccc(-c2nc(C#N)c(C#N)nc2C#N)cc1
43 | 103 | CC(=O)NC1(C)CCN(CCCOc2ccc(F)cc2)CC1
44 | 136 to 138 | CC1(C)CON(Cc2cc(N3C(=O)C4=C(CCCC4)C3=O)c(F)cc2Cl)C1=O
45 | 99 to 101 | CC(C)(Oc1ccc(CCC(=O)c2cc(-c3ccc(C(F)(F)F)cc3)cs2)c(Cl)c1Cl)C(=O)O
46 | 70 to 71 | CCC(=O)c1ccc(OC(C)c2ccc(Cl)cc2)cc1 (stereo not given)
47 | 219 to 220 | Cc1ccccc1-c1c(NC(=O)Nc2c(C)cccc2C(C)C)c(=O)oc2c(F)cc(F)cc12
48 | 179 to 180 | CCc1cc(S(=O)(=O)N(C)C)ccc1-c1cnc2[nH]c(CCc3cc(OC)ccn3)nc2c1
49 | 109 to 111 | O=C(O)Cc1noc(CC(=O)O)n1
50 | 81 to 84 | C[C@H]1CCCC(C)(C)[C@@H]1C(=O)c1ccco1

Row | melting point [°C] | SMILES
51 | 115 to 117 | CCCc1nc(C(O)C(C)(C)C)c(C#N)n1Cc1ccc(-c2ccccc2-c2nnnn2C(c2ccccc2)(c2ccccc2)c2ccccc2)cc1 (stereo not given)
52 | 224 to 226 | Cc1ccc2oc(=O)c(C(=O)Oc3cc(F)ccc3[N+](=O)[O-])cc2c1
53 | 97 to 99 | O=C1c2ccccc2C(=O)N1C(Sc1ccccc1)c1ccccc1 (stereo not given)
54 | 82 to 85 | CCOC(=O)c1csc(C2OC(COC(=O)c3ccccc3)C(O)C2O)n1 (stereo not given)
55 | 107 to 108 | NC(=O)CCc1ccc(F)cc1F
56 | 209 | Nc1ccc(C(=O)N2CCN(NC(=O)c3ccc(F)cc3)CC2)cc1
57 | 123 to 124 | CCOC(Nc1ccccc1)(OCC)C1(Cl)C=CN=C(C(=O)c2ccc(Cl)cc2)C1 (stereo not given)
58 | 260 | N#Cc1ccc(C=C2CCNC2=O)cc1
59 | 180 | Cc1nc2ccccn2c(=O)c1CCN1CCN(C(=NNc2ccccc2)c2ccccc2F)CC1
60 | 176 to 178 | CC(=O)NCC1CN(c2cc(F)c(N3CCC(n4ccnn4)C(F)C3)c(F)c2)C(=O)O1 (stereo not given)
61 | 126 to 127 | COC(=O)c1cc2cc(OCc3cccnc3)ccc2s1
62 | 53 to 55 | CC(C)c1nc2ccc(C=O)cc2nc1C(C)C
63 | 91 to 93 | O=C(OCc1ccc(CO)cc1COC(=O)c1ccccc1)c1ccccc1
64 | 168 to 170 | Cc1nc(Cn2c(=O)sc3cc(F)c(N=C=S)cc32)no1
65 | 228 to 233 | NC(=O)CCCCCCn1cccc1
66 | 198 | O=C1CCC(c2ccccc2)(c2ccccc2)C2CN(C(Cc3ccccc3)=NCc3ccc(Cl)cc3)CC12 (stereo not given)
67 | 112 | CCCOc1nc(=O)n(C(=O)NC)s1
68 | 89 to 91 | CNC(=O)c1cc(SC)cc(N)n1
69 | 215 to 217 | CC12CCCc3cc(NS(=O)(=O)c4ccc(C(=O)O)cc4)cc(c31)CCC2
70 | > 300 | Cc1cccc2cc3c(=O)[nH]cc(C(=O)O)c3nc12
71 | 70 to 72 | COc1ccc(Cn2nnc(-c3cccc(CO)c3)n2)cc1
72 | 79 to 81 | CCCNCc1cccc(OCCCNc2nc(N)nn2C)c1
73 | 124 to 126 | O=C(O)Cc1ccccc1Cc1nc2c(F)c(F)cc(F)c2s1
74 | 142 to 144 | CCn1cc(Cl)nc(S)c1=O
75 | 158 to 160 | CCc1nn(-c2cc(NC(C)=O)ccc2Cl)c(=O)n1Cc1ccc(-c2ccccc2S(=O)(=O)NC(=O)OC(C)(C)C)cc1F

Row | melting point [°C] | SMILES
76 | 133 to 135 | CC(=O)SCC1=C(CSC(C)=O)C(=O)C(CSC(C)=O)=C(CSC(C)=O)C1=O
77 | 165 to 168 | CC1(CCS)C(=O)N2CCCC(C(=O)O)N2C1=O (stereo not given)
78 | 185 to 186 | CC(=O)Oc1cc(C)cc(C(=O)N[C@@H](Cc2ccccc2)[C@H](OC(C)=O)C(=O)O)c1C
79 | 82 to 83 | COC(=O)c1cc(-c2cccc(C(F)(F)F)c2)ns1
80 | 171 to 172 | CCN(CC)CCCNc1nnc(C)c2c1cc1n2CCCC1
81 | 158 to 160 | CCCSC1=NSc2cc(C)cnc2N1Cc1ccc(-c2ccccc2-c2nnn[nH]2)cc1
82 | 132 to 136 | CCOC(=O)c1csnc1-c1cccc([N+](=O)[O-])c1
83 | 134 to 135 | CCOC(=O)COc1cc(O)c2c(c1)NC1(CCCCC1)CC2=O
84 | 49 to 51 | CC(=O)N1CCC(CCc2ccc(N(C)C)cc2)CC1
85 | 174 to 176 | CN1C(=O)N(C)C(O)(c2ccccc2)c2cc(Cl)ccc21 (stereo not given)
86 | 76 to 77 | COc1ccc2c(c1)N(C(C)=O)CCO2
87 | 164 to 166 | O=C(OCCc1ccccc1)c1ccc2c(O)c(O)ccc2c1
88 | 228 to 229 | CNC(=O)c1cc(OC)c(C(=O)NC)c(NC(=O)CCl)c1OC
89 | 132 to 134 | COC(=O)C(C)(C)OCc1cc2cc(C(F)(F)F)ccc2n1S(=O)(=O)c1cc(C)cc(C)c1
90 | 153 to 156 | COc1cc2c(cc1OC)NC(=O)CCC2
91 | 100 to 111 | Clc1nccnc1Sc1ccccc1
92 | 85 to 86 | O=C1CC(Cc2ccc(Cl)cc2Cl)CN1 (stereo not given)
93 | 217 to 218 | Cc1c(C(=O)Nc2ccc(N3CCCCC3)c(C#N)c2)cnn1C
94 | 159 to 163 | CNC(=O)C(Cc1ccc(OC)cc1)NC(=O)C(C)(CC(C)C)c1c(S)cccc1Cl (stereo not given)
95 | 120 | COC(=O)c1cc(-c2ccc(Cl)cc2)nn1Cc1ccc(Cl)cc1Cl
96 | 92 to 95 | CCOC(=O)C=CC=Cc1ccc(OC)c(C)c1C
97 | 133 to 135 | CCS(=O)(=O)N(C)[C@@H]1c2cc([N+](=O)[O-])ccc2OCC[C@H]1O (relative stereo)
98 | 164 to 165 | O=[N+]([O-])c1cccc(N2N=C(O)c3ccccc3C2CCO)c1 (stereo not given)

Row | SMILES | melting point [°C]
99 | CCC1CC2CC(=O)OC3OC4(C)CCC(C1C)C23OO4 (single isomer, unassigned; (+)) | 155 to 157
100 | CN(C)Cc1nnc2n1-c1ccc(Cl)cc1C(c1ccc(Cl)cc1)=[N+]([O-])C2 | 260

Reference: a melting point compilation (Tetko et al.; mined from patent text by program, amines drawn as free bases though some values may be those of a salt)
